Broadly, the EC50 is the midpoint of the concentration-response curve. The term melting point denotes the temperature of the solid-liquid transition.

The source of these data is patent US20170121268A1, “PPAR MODULATORS” (THE GOVERNING COUNCIL OF THE UNIVERSITY OF TORONTO, priority 2014, published 2017).

One series concerns the target T1, GAL4-hPPARα (Homo sapiens, UniProt Q07869).
T1 sequence (Q07869 200-468 limits assumed): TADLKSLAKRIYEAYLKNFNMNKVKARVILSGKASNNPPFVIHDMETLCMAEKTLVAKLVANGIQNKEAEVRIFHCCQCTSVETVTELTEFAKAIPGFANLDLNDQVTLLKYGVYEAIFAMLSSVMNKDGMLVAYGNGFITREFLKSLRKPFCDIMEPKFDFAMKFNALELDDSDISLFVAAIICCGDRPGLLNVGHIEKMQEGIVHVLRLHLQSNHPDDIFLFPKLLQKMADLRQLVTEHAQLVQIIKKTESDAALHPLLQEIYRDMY
As to the kind of experiment: GAL4-hPPARα-UAS-luciferase reporter assay in transiently transfected HEK293 cells. The format is cell-based. As to conditions: for EC50 / PPARα agonist profile compared to the full agonist GW7647: dose-response, HEK293 cells; for EC50: read-out: EC50 for PPARα; for PPARα reporter response relative to vehicle: dosed at 50 μM. The protocol:
(§1) HEK293 cells were maintained in Dulbecco's modified Eagle's medium supplemented with 10% fetal bovine serum. Cell transfection was performed in media containing 10% charcoal-stripped fetal bovine serum using calcium phosphate in 96-well plates. The total amount of plasmid DNA (150 ng/well) included 50 ng UAS-Iuc reporter, 20 ng β-galactosidase, 15 ng nuclear receptor (GAL4-hPPARα and GAL4-hPPARγ) and pGEM filler plasmid. Ligands were added at 6 to 8 hours post transfection. Cells harvested 14 to 16 hours later were assayed for luciferase and β-galactosidase activity.
Background: Reporter assays use an easily measured gene product as a stand-in for the process of interest.

For series [1], the system named is PPARγ target genes in 3T3-L1 pre-adipocytes. As to the kind of experiment: 3T3-L1 differentiation assay, expression of PPARγ target genes (QPCR). The format is cell-based. As to conditions: 25 μM, day 11. Here is the method: (§2) 3T3-L1 cells were maintained in Dulbecco's modified Eagle's medium supplemented with 10% fetal calf serum. Adipocyte differentiation was induced in two-days postconfluent cells by treating the cells with 100 μg/ml isobutylmethylxanthine, 1 μM dexamethasone, and 5 μg/ml insulin with 10% FBS in DMEM (Day 0). Rosiglitazone and LDT ligands were added at the start of differentiation. Two days later, cells were switched to the medium containing 5 μg/ml insulin with 10% FBS. After an additional 72 hrs, cells were switched to maintenance media containing 10% FBS in DMEM. Thereafter, the media was changed every 2 days. Cells were harvested on day 11 for RNA expression and Oil Red O was used to estimate lipid accumulation.
(§3) Total RNA was extracted from cells using RNA STAT-60 (Tel-Test Inc.), followed by DNase I treatment (RNase-free; Roche), and reverse transcribed into cDNA with random hexamers using the High Capacity Reverse Transcription System (ABI; Applied Biosystems). Real-time quantitative PCR (QPCR) analysis was performed on an ABI 7900 in 384-well plates using 2×SYBR Green PCR Master Mix (ABI). Relative mRNA levels were calculated using the comparative Ct method normalized to cyclophilin mRNA.

The target in a further series is T2, GAL4-hPPARγ (Homo sapiens, UniProt P37231).
T2 sequence (P37231 238-505 limits assumed): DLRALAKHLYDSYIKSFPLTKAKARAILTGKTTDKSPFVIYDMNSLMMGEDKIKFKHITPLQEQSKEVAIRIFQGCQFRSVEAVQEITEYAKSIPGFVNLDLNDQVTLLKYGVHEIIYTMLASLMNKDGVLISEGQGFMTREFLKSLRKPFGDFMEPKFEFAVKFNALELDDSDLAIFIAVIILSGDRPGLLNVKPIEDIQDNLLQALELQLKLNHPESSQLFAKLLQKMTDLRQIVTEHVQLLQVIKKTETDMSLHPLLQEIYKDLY
The experiment in a line: GAL4-hPPARγ-UAS-luciferase reporter assay in transiently transfected HEK293 cells. The format is cell-based. As to conditions: for PPARγ agonist profile compared to rosiglitazone control / EC50: dose-response, HEK293 cells; for EC50: read-out: EC50 for PPARγ; for PPARγ reporter response relative to vehicle: dosed at 50 μM. The protocol:
as §1

The next series relates to 3T3-L1 cells. As to the kind of experiment: Oil Red O staining of 3T3-L1 adipocytes after 11 days of differentiation. The format is cell-based. The settings on record: 25 μM. The protocol:
as §2
Following 11 days of differentiation, cells were washed with PBS twice and fixed in 10% neutral buffered formalin (Sigma) for 1 h at room temperature, followed by two ddH2O and two washes with 60% isopropanol. Cells were then stained with 0.6% (w/v) Oil Red O solution (60% isopropanol, 40% water) for 10 min at room temperature, followed by five washes with ddH2O to remove unbound dye and images were taken with Leica M205 FA microscope.

Series [2] concerns PPARα target genes in primary mouse hepatocytes. The experiment in a line: Primary hepatocyte assay, expression of PPARα target genes (QPCR). The format is cell-based. The settings on record: 50 μM, 24 hrs. Here is the method:
Mouse primary hepatocytes were isolated by collagenase perfusion as previously described (Patel et al. 2011). Cells were plated onto type I collagen-coated plates at 0.5×10^6 cells per well for 2 hours in attachment media (William's E Media, 10% charcoal stripped FBS, 1× penicillin/streptomycin, and 10 nM insulin), and then switched to overnight media (M199 Media, 5% charcoal stripped FBS, 1× penicillin/streptomycin, and 1 nM insulin). Ligand treatments were carried out on the following day in M199 media without FBS. Cells were harvested 24 hrs later for RNA extraction.
as §3

The conditions of series [3]: women on drug; cited from earlier work.

With `CCCCCCCCCCCCCCCc1cccc(O)c1C(=O)O` [LDT11], on GAL4-hPPARα, the 50% effective concentration (EC50) came to 9 µM. In series [1], the GLUT4 expression result was “augmented” and the adiponectin expression result is “significantly increased”. At GAL4-hPPARγ, the “PPARγ agonist profile compared to rosiglitazone control” value is on record as “full agonist profile” and the EC50 is 12 µM. In addition, in the series with 3T3-L1 cells, the “adipocyte differentiation by Oil red O staining” value (“adipocyte differentiation” below) is listed as “less adipogenic compared to Rosi”.

For the compound `CCOC(=O)C(C)(C)Oc1cccc(CCCCCCCC(=O)O)c1` [LDT478, 8-(3-((1-ethoxy-2-methyl-1-oxopropan-2-yl)oxy)phenil)octanoic acid], at GAL4-hPPARα, the “PPARα agonist profile compared to the full agonist GW7647” value is reported as “less potent partial PPARα agonists” and the EC50 was determined as 37 µM. On GAL4-hPPARγ, the “PPARγ agonist profile compared to rosiglitazone control” value is recorded as “full agonist profile” and the EC50 came to 14 µM.

With `CCCCCCCCCCCCCCCc1cccc(OCC(=O)OCC)c1` [LDT15], the concentration giving a half-maximal response (EC50) on GAL4-hPPARα turned out to be 3.5 µM. In series [1], the GLUT4 expression entry was “augmented”, the UCP2 expression result is reported as “upregulated” and the adiponectin expression result was “induced to a similar degree as Rosi”. Further, in series [2], the “CD36 expression (hepatocytes)” value is reported as “significantly increased”, the FABP1 expression entry is listed as “significantly increased”, the Fgf21 expression result is recorded as “upregulation” and the PDK4 expression result is given as “upregulated”. For the same compound, on GAL4-hPPARγ, the “PPARγ agonist profile compared to rosiglitazone control” value is “partial PPARγ agonists” and the EC50 is 42 µM. Further, in the series on 3T3-L1 cells, the “adipocyte differentiation” value is recorded as “less adipogenic compared to Rosi”.

Regarding `CCCCCCCCCCCCCCCc1cccc(OC(C)(C)C(=O)O)c1` [LDT409], the EC50 at GAL4-hPPARα came to 0.2 µM. Further, in series [1], the GLUT4 expression entry was “augmented”, the UCP2 expression entry is “upregulated” and the adiponectin expression entry is listed as “induced to a similar degree as Rosi”. For the same compound, in the series with 3T3-L1 cells, the “adipocyte differentiation” value is listed as “comparable to Rosi”.

For the compound `CCOC(=O)COc1cccc(CCCCCCCC(=O)O)c1` [LDT298, 8-(3-(2-Ethoxy-2-oxoethoxy)phenyl)octanoic acid], the “increase in activity as compared to Veh in the PPARα activation assay” value on GAL4-hPPARα (FIG. 5A, dose not given) is on record as “comparable luciferase activation”. For the same compound, at GAL4-hPPARα, the “PPARα agonist profile compared to the full agonist GW7647” value is “less potent partial PPARα agonists” and the EC50 came to 1.3 µM. Besides, the “increase in reporter activity in the PPARγ activation assay” value on GAL4-hPPARγ (FIG. 5B, dose not given) is recorded as “comparable luciferase activation”.

`CCCCCCCCCCCCCCCc1cccc(OC(C)=O)c1C(=O)O` [LDT13]: the EC50 on GAL4-hPPARα stood at 7 µM. Also, the GLUT4 expression result in series [1] was “augmented”. Moreover, at GAL4-hPPARγ, the “PPARγ agonist profile compared to rosiglitazone control” value is “partial PPARγ agonists” and the EC50 is 12 µM.

On to `CCOC(=O)CCCCCCCc1cccc(OCC(=O)OCC)c1` [LDT480, Ethyl 8-(3-(2-ethoxy-2-oxoethoxy)phenyl)octanoate], for which, at GAL4-hPPARα, the “PPARα agonist profile compared to the full agonist GW7647” value was “less potent partial PPARα agonists”, the EC50 amounted to 3.9 µM and the “PPARα reporter response relative to vehicle” value is reported as “most active”. Further, at GAL4-hPPARγ, the “PPARγ agonist profile compared to rosiglitazone control” value was “full agonist profile”, the EC50 is 21 µM and the “PPARγ reporter response relative to vehicle” value is “most active”.

`CCCCCCCCCCCCCCCc1cccc(OC)c1C(=O)O` [LDT30]: the EC50 at GAL4-hPPARα is 32 µM. In series [1], the UCP2 expression result was “upregulated”.

In the case of `CCCCCCCCCCCCCCCc1cccc(OCC(=O)O)c1` [LDT16], the concentration for a half-maximal effect (EC50) at GAL4-hPPARα was 0.9 µM. Moreover, at GAL4-hPPARγ, the “PPARγ agonist profile compared to rosiglitazone control” value is given as “full agonist profile” and the half-maximal effective concentration (EC50) worked out at 3.6 µM.

As to `CN(CCOc1ccc(CC2SC(=O)NC2=O)cc1)c1ccccn1` (centres unmarked) [rosiglitazone], the “rate of distal bone fractures” value in series [3] is given as “two-fold increased rate”.

With `CCc1ccc(CCOc2ccc(CC3SC(=O)NC3=O)cc2)nc1` (centres unmarked) [pioglitazone], the “rate of distal bone fractures” value in series [3] is on record as “two-fold increased rate”.

For `CC(C)(Oc1cccc(CCCCCCCCO)c1)C(=O)O` [LDT477, 2-(3-(8-hydroxyoctyl)phenoxy)-2-methylpropanoic acid], at GAL4-hPPARα, the “PPARα agonist profile compared to the full agonist GW7647” value was “less potent partial PPARα agonists”, the EC50 was determined as 20 µM and the “PPARα reporter response relative to vehicle” value was “most active”. The GLUT4 expression result in series [1] is given as “upregulated”. In addition, at GAL4-hPPARγ, the “PPARγ agonist profile compared to rosiglitazone control” value is given as “full agonist profile”, the concentration for a half-maximal effect (EC50) stood at 14 µM and the “PPARγ reporter response relative to vehicle” value is listed as “most active”. Moreover, the “adipocyte differentiation” value in the series with 3T3-L1 cells was “able to induce adipocyte differentiation”.

Consider `CCOC(=O)CCCCCCCc1cccc(OC(C)(C)C(=O)OCC)c1` [LDT481, Ethyl 8-(3-((1-ethoxy-2-methyl-1-oxopropan-2-yl)oxy)phenyl)octanoate], for which the melting point was 39 to 42 °C. For the same compound, the GLUT4 expression result in series [1] was “upregulated”. The “adipocyte differentiation” value in the series on 3T3-L1 cells is “able to induce adipocyte differentiation”.

In the case of `CCOC(=O)COc1cccc(CCCCCCCCO)c1` [LDT296, Ethyl 2-(3-(8-hydroxyoctyl)phenoxy)acetate], the “PPARα agonist profile compared to the full agonist GW7647” value on GAL4-hPPARα is reported as “less potent partial PPARα agonists”. Also, the “PPARγ agonist profile compared to rosiglitazone control” value on GAL4-hPPARγ is recorded as “less potent, full agonist profile”.

Consider `CCCCCCCCCCCCCCCc1cccc(OC(C)(C)C(=O)OCC)c1` [LDT408], for which, in series [1], the GLUT4 expression result is recorded as “augmented”, the UCP2 expression result was “upregulated” and the adiponectin expression entry is “significantly increased”. Moreover, in series [2], the “CD36 expression (hepatocytes)” value was “significantly increased”, the FABP1 expression result is “significantly increased” and the PDK4 expression result is “upregulated”. On GAL4-hPPARγ, the “PPARγ agonist profile compared to rosiglitazone control” value is listed as “partial PPARγ agonists”. In addition, in the series on 3T3-L1 cells, the “adipocyte differentiation” value is “less adipogenic compared to Rosi”.
